What was measured:
[1] = system: SHP-2 (WT and D61G) in mouse embryonic fibroblasts; test: in vivo (immunocomplex) phosphatase assay: EGF-induced activation of SHP-2 in embryonic fibroblasts; assay type: cell-based; details: 100 μM, last 1 hour; WT and SHP-2D61G/D61G cells
Procedure: (§1) FIG. 5 illustrates in vivo effects of active compounds on SHP-2 activity and SHP-2-mediated signaling. (A) WT and mutant embryonic fibroblasts derived from activating mutation SHP-2 D61G knock-in mice were starved in serum-free medium overnight and were treated with the indicated compounds in the last 1 hour. Cells were then stimulated with EGF (20 ng/mL) for 10 min. Whole cell lysates were prepared and immunoprecipitated with anti-SHP-2 antibody. Immunoprecipitates were washed and then subjected to the in vitro phosphatase assay as described in the text. (B) Ba/F3 cells were deprived of IL-3 for 8 hours. The cells were treated with the indicated compounds 1 hour prior to the stimulation with IL-3 (2 ng/mL). Cells were harvested after the indicated periods of time. Whole cell lysates were prepared and examined for Erk activation with anti-phospho-Erk immunoblotting. The blot was striped and reprobed with anti-pan Erk antibody to examine protein loading.
For the in vivo phosphatase assay, mouse embryonic fibroblasts were used to assess the activities of the test compounds in inhibiting epidermal growth factor (EGF)-induced activation of SHP-2 catalytic activity. WT and mutant fibroblasts derived from activating mutation of SHP-2 D61G knock-in mice (SHP-2D61G/D61G)10 were starved in serum-free medium overnight and the tested compounds (100 μM) were added in the last 1 hour. […]

[2] = system: Erk activation in Ba/F3 cells; test: IL-3-induced Erk activation, anti-phospho-Erk immunoblotting; assay type: cell-based, murine; details: Ba/F3 cells preincubated 1 hour
Procedure: as §1
We next tested whether the active compounds are effective in cells. […] Activation of SHP-2 in response to EGF stimulation was determined using the immunocomplex phosphatase assay. Compared to WT SHP-2, catalytic activity of SHP-2 D61G mutant in the mutant cells was increased both at the basal level and following EGF stimulation (FIG. 5A), consistent with previous studies. […]

[3] = molecular target: T1, SHP-2 PTP domain GST fusion protein (Homo sapiens, UniProt Q06124); test: fluorescence titration (quenching of SHP-2 fluorescence); assay type: binding; design: Purified SHP-2 PTP domain GST-fusion protein was diluted into 20 mM Tris-HCl; made in house; details: SHP-2 protein 3 μM, excitation 295 nm
T1 sequence (Q06124 247-517 limits assumed): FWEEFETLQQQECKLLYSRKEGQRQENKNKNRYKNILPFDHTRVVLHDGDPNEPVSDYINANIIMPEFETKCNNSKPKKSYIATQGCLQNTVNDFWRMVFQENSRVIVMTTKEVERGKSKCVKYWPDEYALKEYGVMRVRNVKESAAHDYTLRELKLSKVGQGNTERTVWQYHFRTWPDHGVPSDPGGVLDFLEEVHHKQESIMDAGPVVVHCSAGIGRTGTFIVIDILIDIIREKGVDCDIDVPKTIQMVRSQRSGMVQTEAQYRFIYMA
Procedure: For all experiments, Purified SHP-2 PTP domain GST-fusion protein was diluted into 20 mM Tris-HCl, pH 7.5. Fluorescence spectra were recorded with a Luminescence Spectrometer LS50 (Perkin-Elmer, Boston, Mass.). Titrations were performed by increasing the test compound concentration while maintaining the SHP-2 protein concentration at 3 μM. Contributions from background fluorescence of the inhibitors were accounted for by subtracting the fluorescence of the inhibitors alone from the of the protein-inhibitor solution. The excitation wavelength was 295 nm and fluorescence was monitored from 360 to 500 nm. All reported fluorescence intensities are relative values and are not corrected for wavelength variations in detector response.
To validate that the active compounds identified were binding directly to the SHP-2 protein, we determined whether the active compounds directly interacted with the SHP-2 PTP domain using fluorescence quenching and taking advantage of the four tryptophans in the PTP domain, with Trp248 located 15 Å from the putative pY+5 pocket and Trp423 located 8 Å from the phosphatase active site. […] Therefore, their binding to SHP-2 protein could not be determined using this measurement. Thus, the fluorescence quenching experiments indicate that at least four active compounds identified do directly bind to SHP-2, thereby leading to their biological activities.

Compound | EGF-induced activation of SHP-2 [1] | Erk activation by IL-3 [2] | quenching of SHP-2 fluorescence [3]
NS(=O)(=O)c1ccc(CCNC(=O)c2ccc(Cn3c(=S)[nH]c4ccc(Br)cc4c3=O)cc2)cc1 [#216] | blocked | suppressed | strong quenching
Cc1cc(C)c2c(c1)[nH]c1nnc(SCC(=O)NCc3cccs3)nc12 [#220] | blocked | suppressed | strong quenching
